Assay results taken from patent publication US9533985B2, “Sulfonamide derivative and medicinal use thereof” (EA Pharma Co., Ltd., priority 2012, dated 2017).

Key:
Format in all cases: cell-based
[1] = target: α4β1 integrin (Homo sapiens (Human), UniProt P05556+P13612); experiment: VCAM-1/α4β1 integrin binding inhibitory activity evaluation test (Jurkat cell adhesion to VCAM-1/Fc); conditions: Jurkat cells binding to recombinant human VCAM-1/Fc
Experimental: The ability of test substances to inhibit the binding of a human T-cell line, Jurkat, which is known to express α4β1 integrin, to VCAM-1 was measured. To 96-well microtiter plates, recombinant human VCAM-1/Fc (R&D systems) solution (1 μg/mL) diluted with buffer A (carbonate buffer, pH 9.6) was added at 50 μL/well, followed by incubation at 4° C. overnight. After washing once with PBS, Block Ace (Snow Brand Milk Products Company, Limited) was added at 150 μL/well, followed by incubation at room temperature for 2 hours. After removal, washing was conducted once with PBS. 100 μL of each test substance diluted with a binding buffer (DMEM containing 40 mM HEPES, 0.2% BSA, and 4 mM MnCl2) to various concentrations and 100 μL of the Jurkat cells (2×10^6 cell/mL) were added to the plates coated with VCAM-1/Fc (5×10^5 cells/well), followed by incubation at 30° C. for 15 minutes to 60 minutes. After the cells were bound to each well, unbound cells were removed by washing with PBS. To the plates, buffer C (PBS containing 1.5% Triton X-100) was added at 50 μL/well to lyse the bound Jurkat cells. To 30 μL of the cell lysate, 30 μL of Substrate Buffer (Promega, CytoTox 96 Non-Radioactive Cytotoxicity Assay) was added, and the reaction was allowed to proceed at room temperature in a dark place for 30 minutes. To each well, 30 μL of Stop Solution (Promega, CytoTox 96 Non-Radioactive Cytotoxicity Assay) was added, and the absorbance at 490 nm was measured by using a plate reader. Here, by the obtained absorbance, the activity of the lactate dehydrogenase (LDH) dissolved into the supernatant of each well was detected. In other words, the absorbance was proportional to the number of the Jurkat cells bound to VCAM-1 and remaining on the plate. The test was duplicated. The binding ratios of the cells at various concentrations were determined, with the absorbance of a well containing no test substances taken as 100%. Then, the concentration IC50, at which 50% binding inhibition was achieved, was calculated. […] Note that, among the compounds synthesized in the corresponding Examples, the compounds in the free form (Compounds A-1 to A-39) were used as the test compounds. Hereinafter, the same shall apply.

[2] = target: T1, α4β7 integrin (Homo sapiens (Human), UniProt P13612+P26010); experiment: MAdCAM-1/α4β7 integrin binding inhibitory activity evaluation test in the presence of serum (1); conditions: RPMI-8866 cells binding to mouse MAdCAM-1/Fc, human serum at final concentration of 50%; read-out: α4β7 with serum added, IC50
Experimental: (§1) The ability of test substances to inhibit the binding of a human B cell line, RPMI-8866, which is known to express α4β7 integrin, to MAdCAM-1 was measured. To 96-well microtiter plates, recombinant mouse MAdCAM-1/Fc (R&D systems) solution (1 μg/mL) diluted with buffer A (carbonate buffer, pH 9.6) was added at 50 μL/well, followed by incubation at 4° C. overnight. After washing once with PBS, Block Ace (Snow Brand Milk Products Company, Limited) was added at 150 μL/well, followed by incubation at room temperature for 2 hours. After removal, washing was conducted once with PBS. 100 μL of each test substance diluted with a binding buffer (DMEM containing 40 mM HEPES, 0.2% BSA, and 4 mM MnCl2) to various concentrations and 100 μL of RPMI-8866 cells (2×10^6 cell/mL) were added to plates coated with MAdCAM-1/Fc (5×10^5 cells/well) with human serum being contained at a final concentration of 50%, followed by incubation at 30° C. for 15 minutes to 60 minutes. After the cells were bound to each well, unbound cells were removed by washing with PBS. To the plates, buffer C (PBS containing 1.5% Triton X-100) was added at 50 μL/well to lyse the bound RPMI-8866 cells. To 30 μL of the cell lysate, 30 μL of Substrate Buffer (Promega, CytoTox 96 Non-Radioactive Cytotoxicity Assay) was added, and the reaction was allowed to proceed at room temperature in a dark place for 30 minutes. To each well, 30 μL of Stop Solution (Promega, CytoTox 96 Non-Radioactive Cytotoxicity Assay) was added, and the absorbance at 490 nm was measured by using a plate reader. Here, by the obtained absorbance, the activity of the lactate dehydrogenase (LDH) dissolved into the supernatant of each well was detected. In other words, the absorbance was proportional to the number of the RPMI-8866 cells bound to MAdCAM-1 and remaining on the plate. The test was duplicated. The binding ratios of the cells at various concentrations were determined, with the absorbance of a well containing no test substance taken as 100%. Then, the concentration IC50, at which 50% binding inhibition was achieved, was calculated.

[3] = target: T1, α4β7 integrin; experiment: MAdCAM-1/α4β7 integrin binding inhibitory activity evaluation test (RPMI-8866 cell adhesion to MAdCAM-1/Fc); conditions: for Selectivity: IC50 in VCAM-1/α4β1 test divided by IC50 in MAdCAM-1/α4β7 test; for IC50: RPMI-8866 cells binding to recombinant mouse MAdCAM-1/Fc, no serum
Experimental: as §1, with “systems) solution (0.75 μg/mL) diluted” for “systems) solution (1 μg/mL) diluted”, “A (carbonate buffer solution, pH 9.6)” for “A (carbonate buffer, pH 9.6)”, “diluted with binding buffer” for “diluted with a binding buffer”, “added to the plates coated” for “added to plates coated”, “MAdCAM-1/Fc (5×10^5 cells/well), followed by” for “MAdCAM-1/Fc (5×10^5 cells/well) with human serum being contained at a final concentration of 50%, followed by”, “was calculated. […] Note that the selectivity in the table was determined by dividing the IC50 value in VCAM-1/α4β1 Integrin Binding Inhibitory Activity Evaluation Test by the IC50 value in the MAdCAM-1/α4β7 integrin binding inhibitory activity evaluation test.” for “was calculated.”

[4] = target: T1, α4β7 integrin; experiment: MAdCAM-1/α4β7 integrin binding inhibitory activity evaluation test in the presence of serum (2); conditions: RPMI-8866 cells binding to mouse MAdCAM-1/Fc, same manner as Test (3), read-out: α4β7 Rank of activity with serum added
Method in brief: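 Adhesion of human RPMI-8866 B cells (α4β7-expressing) to plate-bound recombinant mouse MAdCAM-1/Fc in DMEM binding buffer with 4 mM MnCl2 and 50% final human serum, 15–60 min at 30 °C. Bound cells quantified by LDH activity (A490) after lysis; IC50 relative to no-compound binding, duplicate.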

T1 sequence (P13612 34-1032): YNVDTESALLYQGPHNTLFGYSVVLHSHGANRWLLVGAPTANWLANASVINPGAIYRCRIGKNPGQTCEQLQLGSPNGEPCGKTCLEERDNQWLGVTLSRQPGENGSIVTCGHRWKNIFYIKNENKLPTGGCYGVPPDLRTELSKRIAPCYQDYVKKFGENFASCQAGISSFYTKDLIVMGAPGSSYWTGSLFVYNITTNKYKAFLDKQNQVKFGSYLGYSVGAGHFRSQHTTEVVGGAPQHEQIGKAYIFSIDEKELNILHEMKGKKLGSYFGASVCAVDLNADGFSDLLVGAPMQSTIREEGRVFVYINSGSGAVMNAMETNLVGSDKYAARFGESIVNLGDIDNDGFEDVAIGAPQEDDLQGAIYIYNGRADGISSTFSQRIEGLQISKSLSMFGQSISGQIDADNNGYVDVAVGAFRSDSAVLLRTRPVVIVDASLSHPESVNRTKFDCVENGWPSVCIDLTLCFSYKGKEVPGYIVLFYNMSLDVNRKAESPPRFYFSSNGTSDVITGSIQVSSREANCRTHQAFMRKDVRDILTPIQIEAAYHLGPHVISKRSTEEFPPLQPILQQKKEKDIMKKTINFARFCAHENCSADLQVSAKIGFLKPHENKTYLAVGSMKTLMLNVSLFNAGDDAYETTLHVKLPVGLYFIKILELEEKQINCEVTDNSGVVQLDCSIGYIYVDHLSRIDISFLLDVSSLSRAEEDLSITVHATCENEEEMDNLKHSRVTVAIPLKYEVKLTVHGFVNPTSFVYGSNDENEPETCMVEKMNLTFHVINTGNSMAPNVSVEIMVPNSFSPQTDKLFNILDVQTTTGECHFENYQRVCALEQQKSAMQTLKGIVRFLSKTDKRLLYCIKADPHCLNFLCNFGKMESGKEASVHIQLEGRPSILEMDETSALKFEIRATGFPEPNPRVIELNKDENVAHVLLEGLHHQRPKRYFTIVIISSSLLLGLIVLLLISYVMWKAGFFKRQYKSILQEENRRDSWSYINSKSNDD
T1 sequence (P26010 20-798): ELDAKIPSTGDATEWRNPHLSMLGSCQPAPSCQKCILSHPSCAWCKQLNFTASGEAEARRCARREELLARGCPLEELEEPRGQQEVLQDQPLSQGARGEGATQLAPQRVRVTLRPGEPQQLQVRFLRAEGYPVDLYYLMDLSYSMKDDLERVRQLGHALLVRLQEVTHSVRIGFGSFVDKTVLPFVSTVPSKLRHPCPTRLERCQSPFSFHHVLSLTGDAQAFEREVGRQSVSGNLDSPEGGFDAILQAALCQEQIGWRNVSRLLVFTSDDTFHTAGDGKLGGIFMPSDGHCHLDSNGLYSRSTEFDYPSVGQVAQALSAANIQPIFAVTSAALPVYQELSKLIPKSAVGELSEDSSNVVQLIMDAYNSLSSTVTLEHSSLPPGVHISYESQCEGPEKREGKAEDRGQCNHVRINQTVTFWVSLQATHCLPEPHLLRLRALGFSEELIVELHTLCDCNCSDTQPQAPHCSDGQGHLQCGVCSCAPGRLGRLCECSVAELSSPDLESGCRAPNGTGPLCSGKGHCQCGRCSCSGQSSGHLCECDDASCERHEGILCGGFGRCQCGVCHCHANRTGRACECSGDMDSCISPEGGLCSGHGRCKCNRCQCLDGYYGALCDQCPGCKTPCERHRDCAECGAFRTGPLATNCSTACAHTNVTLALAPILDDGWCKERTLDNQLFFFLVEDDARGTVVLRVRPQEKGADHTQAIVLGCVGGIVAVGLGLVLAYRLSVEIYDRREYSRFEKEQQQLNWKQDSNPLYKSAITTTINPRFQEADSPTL
Chain of α4β1 integrin (P13612 34-1032): as the sequence (P13612 34-1032) above
Chain of α4β1 integrin (P05556 21-798): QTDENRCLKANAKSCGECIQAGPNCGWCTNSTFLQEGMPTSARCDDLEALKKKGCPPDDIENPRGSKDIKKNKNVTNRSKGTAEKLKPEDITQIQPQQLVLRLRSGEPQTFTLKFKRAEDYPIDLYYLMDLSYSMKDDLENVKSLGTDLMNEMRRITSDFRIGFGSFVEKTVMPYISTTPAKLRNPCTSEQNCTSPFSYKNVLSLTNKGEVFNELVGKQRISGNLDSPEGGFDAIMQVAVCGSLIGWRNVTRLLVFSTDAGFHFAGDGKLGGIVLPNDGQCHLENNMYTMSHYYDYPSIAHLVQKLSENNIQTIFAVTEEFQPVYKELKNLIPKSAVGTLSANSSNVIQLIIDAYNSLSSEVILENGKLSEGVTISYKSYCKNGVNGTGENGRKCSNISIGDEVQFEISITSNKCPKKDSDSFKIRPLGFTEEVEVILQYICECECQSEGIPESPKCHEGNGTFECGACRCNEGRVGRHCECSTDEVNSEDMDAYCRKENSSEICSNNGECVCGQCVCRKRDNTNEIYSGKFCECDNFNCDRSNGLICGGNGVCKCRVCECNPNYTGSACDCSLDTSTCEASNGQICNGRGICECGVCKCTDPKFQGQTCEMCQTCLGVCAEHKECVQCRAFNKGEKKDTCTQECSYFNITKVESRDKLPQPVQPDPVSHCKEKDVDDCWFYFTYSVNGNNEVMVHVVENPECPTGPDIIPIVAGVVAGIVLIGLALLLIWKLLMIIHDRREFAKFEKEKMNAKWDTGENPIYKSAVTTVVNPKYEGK

| Compound | IC50 [1] [nM] | IC50 [2] [nM] | Selectivity [3] | IC50 [3] [nM] | IC50 [4] [nM] |
| --- | --- | --- | --- | --- | --- |
| Cn1c(=O)n(-c2ccc(C[C@H](NC(=O)c3ccc(NS(=O)(=O)c4ccncc4)cc3F)C(=O)O)cc2)c(=O)c2ccncc21 [Example 39, N-{2-Fluoro-4-[(pyridin-4-yl-sulfonyl)amino]benzoyl}-4-(1-methyl-2,4-dioxo-1,4-dihydropyrido[3,4-d]pyrimidin-3(2H)-yl)-L-phenylalanine] | 140 | 27 | 170 | 0.83 | – |
| Cn1ccc(=O)n(-c2ccc(C[C@H](NC(=O)c3c(F)cc(NS(=O)(=O)c4ccc(-c5ncccn5)cn4)cc3F)C(=O)O)cc2)c1=O [Example 40, N-(2,6-Difluoro-4-{[(5-pyrimidin-2-yl-pyridin-2-yl)sulfonyl]amino}benzoyl)-4-(3-methyl-2,6-dioxo-3,6-dihydropyrimidin-1(2H)-yl)-L-phenylalanine] | 210 | 8.7 | 290 | 0.73 | – |
| Cn1c(=O)n(-c2ccc(C[C@H](NC(=O)c3c(F)cc(NS(=O)(=O)c4ccc(-c5ncccn5)cc4)cc3F)C(=O)O)cc2)c(=O)c2ccncc21 [Example 41, N-(2,6-Difluoro-4-{[(4-pyrimidin-2-yl-phenyl)sulfonyl]amino}benzoyl)-4-(1-methyl-2,4-dioxo-1,4-dihydropyrido[3,4-d]pyrimidin-3(2H)-yl)-L-phenylalanine] | 130 | 6.4 | 500 | 0.26 | – |
| Cn1c(=O)n(-c2ccc(C[C@H](NC(=O)c3cc(F)c(NS(=O)(=O)c4ccc5c(c4)C(=O)OC5)cc3F)C(=O)O)nc2)c(=O)c2ccncc21 [Example 233, N-(2,5-Difluoro-4-{[(3-oxo-1,3-dihydro-2-benzofuran-5-yl)sulfonyl]amino}benzoyl)-3-[5-(1-methyl-2,4-dioxo-1,4-dihydropyrido[3,4-d]pyrimidin-3(2H)-yl)pyridin-2-yl]-L-alanine] | – | – | – | – | 50 to 200 |
| Cc1cn(-c2ccc(S(=O)(=O)Nc3cc(F)c(C(=O)N[C@@H](Cc4ccc(-n5c(=O)c6ccncc6n(C)c5=O)cn4)C(=O)O)cc3F)cc2)nn1 [Example 234, N-[2,5-Difluoro-4-({[4-(4-methyl-1H-1,2,3-triazol-1-yl)phenyl]sulfonyl}amino)benzoyl]-3-[5-(1-methyl-2,4-dioxo-1,4-dihydropyrido[3,4-d]pyrimidin-3(2H)-yl)pyridin-2-yl]-L-alanine] | – | – | – | – | 10 to 50 |
| CCc1ncc(-c2ccc(S(=O)(=O)Nc3cc(F)c(C(=O)N[C@@H](Cc4ccc(-n5c(=O)c6ccncc6n(C)c5=O)cc4)C(=O)O)cc3F)cc2)cn1 [Example 237, N-[4-({[4-(2-Ethylpyrimidin-5-yl)phenyl]sulfonyl}amino)-2,5-difluorobenzoyl]-4-(1-methyl-2,4-dioxo-1,4-dihydropyrido[3,4-d]pyrimidin-3(2H)-yl)-L-phenylalanine] | – | – | – | – | 10 to 50 |
| CCc1ncc(-c2ccc(S(=O)(=O)Nc3cc(F)c(C(=O)N[C@@H](Cc4ccc(-n5c(=O)c6ccncc6n(C)c5=O)nc4)C(=O)O)cc3F)cc2)cn1 [Example 238, N-[4-({[4-(2-Ethylpyrimidin-5-yl)phenyl]sulfonyl}amino)-2,5-difluorobenzoyl]-3-[6-(1-methyl-2,4-dioxo-1,4-dihydropyrido[3,4-d]pyrimidin-3(2H)-yl)pyridin-3-yl]-L-alanine] | – | – | – | – | ≤ 10 |

Other lines, results leading:

| IC50 [1] [nM] | IC50 [2] [nM] | Selectivity [3] | IC50 [3] [nM] | IC50 [4] [nM] | Compound |
| --- | --- | --- | --- | --- | --- |
| – | – | – | – | 50 to 200 | Cn1c(=O)n(-c2ccc(C[C@H](NC(=O)c3cc(F)c(NS(=O)(=O)c4ccc(-c5cnc(N6CCC6)nc5)cc4)cc3F)C(=O)O)nc2)c(=O)c2ccncc21 [Example 232, N-[4-({[4-(2-Azetidin-1-ylpyrimidin-5-yl)phenyl]sulfonyl}amino)-2,5-difluorobenzoyl]-3-[5-(1-methyl-2,4-dioxo-1,4-dihydropyrido[3,4-d]pyrimidin-3(2H)-yl)pyridin-2-yl]-L-alanine] |
| – | – | – | – | > 200 | Cn1c(=O)n(-c2ccc(C[C@H](NC(=O)c3cc(F)c(NS(=O)(=O)c4ccc(-c5cc(F)cc(F)c5)cc4)cc3F)C(=O)O)nc2)c(=O)c2ccncc21 [Example 235, N-(4-{[(3′,5′-Difluorobiphenyl-4-yl)sulfonyl]amino}-2,5-difluorobenzoyl)-3-[5-(1-methyl-2,4-dioxo-1,4-dihydropyrido[3,4-d]pyrimidin-3(2H)-yl)pyridin-2-yl]-L-alanine] |
| – | – | – | – | 10 to 50 | CCc1ncc(-c2ccc(S(=O)(=O)Nc3cc(F)c(C(=O)N[C@@H](Cc4ccc(-n5c(=O)c6ccncc6n(C)c5=O)cn4)C(=O)O)cc3F)nc2)cn1 [Example 236, N-[4-({[5-(2-Ethylpyrimidin-5-yl)pyridin-2-yl]sulfonyl}amino)-2,5-difluorobenzoyl]-3-[5-(1-methyl-2,4-dioxo-1,4-dihydropyrido[3,4-d]pyrimidin-3(2H)-yl)pyridin-2-yl]-L-alanine] |
